Data: PubChem BioAssay AID1963966 (Molecular Pharmacology Branch, DTP, NCI, 2024)

Test system: 935938-334-R-J1-PDC spheroids with HUVEC/MSC, viability
Test: Anticancer human tumor 935938-334-R-J1-PDC patient-derived small intestine adenocarcinoma cell line growth inhibition [PI3K]
Details: for IC50: curve of first compound; for viability, T/C: stronger effect = lower value
Outline: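 Three cell types, namely tumor cells, endothelial cells and mesenchymal stem cells, formed each spheroid. Combinations with four PI3K inhibitors were screened at clinically achievable concentrations decreasing by half-log, and spheroid viability was recorded.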

[1] = second compound 0.0316 µM, first compound 0.0316 µM
[2] = second compound 0.0316 µM, first compound 0.1 µM
[3] = second compound 0.0316 µM, first compound 0.316 µM
[4] = second compound 0.0316 µM, first compound 1 µM
[5] = second compound 0.0316 µM, first compound 3.16 µM
[6] = second compound 0.0316 µM, first compound 10 µM
[7] = second compound 0.1 µM, first compound 0.0316 µM
[8] = second compound 0.1 µM, first compound 0.1 µM
[9] = second compound 0.1 µM, first compound 0.316 µM
[10] = second compound 0.1 µM, first compound 1 µM
[11] = second compound 0.1 µM, first compound 3.16 µM
[12] = second compound 0.1 µM, first compound 10 µM
[13] = second compound 0.316 µM, first compound 0.0316 µM
[14] = second compound 0.316 µM, first compound 0.1 µM
[15] = second compound 0.316 µM, first compound 0.316 µM
[16] = second compound 0.316 µM, first compound 1 µM
[17] = second compound 0.316 µM, first compound 3.16 µM
[18] = second compound 0.316 µM, first compound 10 µM
[19] = second compound 1 µM, first compound 0.0316 µM
[20] = second compound 1 µM, first compound 0.1 µM
[21] = second compound 1 µM, first compound 0.316 µM
[22] = second compound 1 µM, first compound 1 µM
[23] = second compound 1 µM, first compound 3.16 µM
[24] = second compound 1 µM, first compound 10 µM
[25] = second compound 3.16 µM, first compound 0.0316 µM
[26] = second compound 3.16 µM, first compound 0.1 µM
[27] = second compound 3.16 µM, first compound 0.316 µM
[28] = second compound 3.16 µM, first compound 1 µM
[29] = second compound 3.16 µM, first compound 3.16 µM
[30] = second compound 3.16 µM, first compound 10 µM
[31] = second compound 10 µM, first compound 0.0316 µM
[32] = second compound 10 µM, first compound 0.1 µM
[33] = second compound 10 µM, first compound 0.316 µM
[34] = second compound 10 µM, first compound 1 µM
[35] = second compound 10 µM, first compound 3.16 µM
[36] = second compound 10 µM, first compound 10 µM
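Also: compound exposure lasted seven days before viability was read.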
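For viability, T/C in this document: percent of vehicle DMSO treated spheroid viability so 100% = untreated.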

`C#Cc1c(F)ccc2cc(O)cc(-c3ncc4c(N5CC6CCC(C5)N6)nc(OCC56CCCN5CC(F)C6)nc4c3F)c12` (stereo not drawn) + CC(Nc1ncnc2nc[nH]c12)c1cc2cccc(Cl)c2c(=O)n1-c1ccccc1 showed an IC50 (second compound 0.0316 µM) of 4520 nM, an IC50 (second compound 0.1 µM) of 3150 nM and an IC50 (second compound 0.316 µM) of 3980 nM. The IC50 (second compound 1 µM) was 2840 nM, the IC50 (second compound 3.16 µM) was 2230 nM and the IC50 (second compound 10 µM) was 663 nM. The viability, T/C [1] was 83.8%, the viability, T/C [2] was 82.3% and the viability, T/C [3] was 83.2%. For the same compound, the viability, T/C [4] was 65.5%, the viability, T/C [5] was 56.8% and the viability, T/C [6] was 39%. The viability, T/C [7] was 99.4%, the viability, T/C [8] was 97% and the viability, T/C [9] was 91.9%. For the same compound, the viability, T/C [10] was 65.5%, the viability, T/C [11] was 53.3% and the viability, T/C [12] was 42.9%. For the same compound, the viability, T/C [13] was 88.8%, the viability, T/C [14] was 103% and the viability, T/C [15] was 89.3%. It also gave a viability, T/C [16] of 74.1%, a viability, T/C [17] of 54.3% and a viability, T/C [18] of 37.8%. The viability, T/C [19] was 76.7%, the viability, T/C [20] was 73.2% and the viability, T/C [21] was 60.4%. For the same compound, the viability, T/C [22] was 52.4%, the viability, T/C [23] was 57.4% and the viability, T/C [24] was 39.1%. For the same compound, the viability, T/C [25] was 82.8%, the viability, T/C [26] was 82.8% and the viability, T/C [27] was 110%. The viability, T/C [28] was 69.8%, the viability, T/C [29] was 44.5% and the viability, T/C [30] was 30.3%. For the same compound, the viability, T/C [31] was 70%, the viability, T/C [32] was 73.8% and the viability, T/C [33] was 60.4%. It also gave a viability, T/C [34] of 44.2%, a viability, T/C [35] of 36.2% and a viability, T/C [36] of 34%.

For `Cn1nccc1Nc1nccc(-c2ccn(C(CO)c3ccc(Cl)c(F)c3)c(=O)c2)n1` (stereo not drawn) + CC(Nc1ncnc2nc[nH]c12)c1cc2cccc(Cl)c2c(=O)n1-c1ccccc1, the IC50 (second compound 0.0316 µM) was 767 nM, the IC50 (second compound 0.1 µM) was 1460 nM and the IC50 (second compound 0.316 µM) was 1300 nM. It also gave an IC50 (second compound 1 µM) of 1280 nM, an IC50 (second compound 3.16 µM) of 529 nM and an IC50 (second compound 10 µM) of 143 nM. The viability, T/C [1] was 85.2%, the viability, T/C [2] was 79.2% and the viability, T/C [3] was 66.3%. For the same compound, the viability, T/C [4] was 46.7%, the viability, T/C [5] was 31.1% and the viability, T/C [6] was 38.6%. The viability, T/C [7] was 99.6%, the viability, T/C [8] was 91.1% and the viability, T/C [9] was 73%. For the same compound, the viability, T/C [10] was 54.4%, the viability, T/C [11] was 41.4% and the viability, T/C [12] was 33.6%. It also gave a viability, T/C [13] of 87.9%, a viability, T/C [14] of 101% and a viability, T/C [15] of 63.2%. For the same compound, the viability, T/C [16] was 56.2%, the viability, T/C [17] was 41.1% and the viability, T/C [18] was 28.3%. The viability, T/C [19] was 96.2%, the viability, T/C [20] was 81.3% and the viability, T/C [21] was 57.1%. The viability, T/C [22] was 61%, the viability, T/C [23] was 39.6% and the viability, T/C [24] was 27.9%. For the same compound, the viability, T/C [25] was 74.1%, the viability, T/C [26] was 77.8% and the viability, T/C [27] was 55.3%. It also gave a viability, T/C [28] of 43.1%, a viability, T/C [29] of 32.4% and a viability, T/C [30] of 33.6%. It also gave a viability, T/C [31] of 63.4%, a viability, T/C [32] of 53.5% and a viability, T/C [33] of 43.8%. For the same compound, the viability, T/C [34] was 33.6%, the viability, T/C [35] was 32.6% and the viability, T/C [36] was 25.3%.

With `CC1(C)CCC(CN2CCN(c3ccc(C(=O)NS(=O)(=O)c4ccc(NCC5CCOCC5)c([N+](=O)[O-])c4)c(Oc4cnc5[nH]ccc5c4)c3)CC2)=C(c2ccc(Cl)cc2)C1` + Cc1nc(NC(=O)N2CCCC2C(N)=O)sc1-c1ccnc(C(C)(C)C(F)(F)F)c1 the IC50 (second compound 0.0316 µM) was 6770 nM, the IC50 (second compound 0.1 µM) was 7420 nM and the IC50 (second compound 0.316 µM) was 6510 nM. It also gave an IC50 (second compound 1 µM) of 5320 nM, an IC50 (second compound 3.16 µM) of 4250 nM and an IC50 (second compound 10 µM) of less than 31.6 nM. It also gave a viability, T/C [1] of 85.1%, a viability, T/C [2] of 97.9% and a viability, T/C [3] of 91.5%. It also gave a viability, T/C [4] of 80.6%, a viability, T/C [5] of 87.7% and a viability, T/C [6] of 30.7%. It also gave a viability, T/C [7] of 81.9%, a viability, T/C [8] of 97.5% and a viability, T/C [9] of 89.3%. For the same compound, the viability, T/C [10] was 99.4%, the viability, T/C [11] was 101% and the viability, T/C [12] was 34.6%. It also gave a viability, T/C [13] of 96.3%, a viability, T/C [14] of 99% and a viability, T/C [15] of 76.5%. The viability, T/C [16] was 55.2%, the viability, T/C [17] was 92.4% and the viability, T/C [18] was 29.8%. It also gave a viability, T/C [19] of 82%, a viability, T/C [20] of 75.5% and a viability, T/C [21] of 72.4%. For the same compound, the viability, T/C [22] was 57.4%, the viability, T/C [23] was 70.8% and the viability, T/C [24] was 25.4%. It also gave a viability, T/C [25] of 52.3%, a viability, T/C [26] of 67% and a viability, T/C [27] of 53.5%. The viability, T/C [28] was 58.6%, the viability, T/C [29] was 60% and the viability, T/C [30] was 26.2%. The viability, T/C [31] was 38.1%, the viability, T/C [32] was 42.1% and the viability, T/C [33] was 36.6%. For the same compound, the viability, T/C [34] was 44.4%, the viability, T/C [35] was 48% and the viability, T/C [36] was 31.4%.

Work on `CC1(C)CCC(Nc2ncc(C(F)(F)F)c(-c3c[nH]c4c(P(C)(C)=O)c(C#N)ccc34)n2)CN1` (stereo not drawn) + Cc1nc(NC(=O)N2CCCC2C(N)=O)sc1-c1ccnc(C(C)(C)C(F)(F)F)c1 yielded an IC50 (second compound 0.0316 µM) of less than 31.6 nM, an IC50 (second compound 0.1 µM) of less than 31.6 nM and an IC50 (second compound 0.316 µM) of less than 31.6 nM. For the same compound, the IC50 (second compound 1 µM) was less than 31.6 nM, the IC50 (second compound 3.16 µM) was less than 31.6 nM and the IC50 (second compound 10 µM) was less than 31.6 nM. For the same compound, the viability, T/C [1] was 31.4%, the viability, T/C [2] was 24.9% and the viability, T/C [3] was 39.4%. For the same compound, the viability, T/C [4] was 33.7%, the viability, T/C [5] was 30.8% and the viability, T/C [6] was 5.69%. The viability, T/C [7] was 33.6%, the viability, T/C [8] was 34.4% and the viability, T/C [9] was 31.6%. For the same compound, the viability, T/C [10] was 32.3%, the viability, T/C [11] was 36.3% and the viability, T/C [12] was 6.9%. For the same compound, the viability, T/C [13] was 34.6%, the viability, T/C [14] was 34.5% and the viability, T/C [15] was 26.2%. It also gave a viability, T/C [16] of 29.6%, a viability, T/C [17] of 27.6% and a viability, T/C [18] of 6.74%. It also gave a viability, T/C [19] of 38.3%, a viability, T/C [20] of 26.2% and a viability, T/C [21] of 23.7%. The viability, T/C [22] was 20.8%, the viability, T/C [23] was 23.7% and the viability, T/C [24] was 4.15%. It also gave a viability, T/C [25] of 24.6%, a viability, T/C [26] of 22.6% and a viability, T/C [27] of 24.5%. It also gave a viability, T/C [28] of 25.2%, a viability, T/C [29] of 25.2% and a viability, T/C [30] of 3.91%. The viability, T/C [31] was 25.6%, the viability, T/C [32] was 23.8% and the viability, T/C [33] was 26.2%. For the same compound, the viability, T/C [34] was 24.7%, the viability, T/C [35] was 19.9% and the viability, T/C [36] was 2.1%.
